Measured values from patent publication US8785381B2 (Emisphere Technologies, Inc., priority 2003, dated 2014).

Experiment: in vivo
Conditions: male, Sprague-Dawley, rat

Q: With `CC[C@H](C)[C@H](NC(=O)[C@H](Cc1ccccc1)NC(=O)[C@H](CCC(=O)O)NC(=O)[C@H](CCCCN)NC(=O)[C@H](C)NC(=O)[C@H](C)NC(=O)[C@H](CCC(N)=O)NC(=O)CNC(=O)[C@H](CCC(=O)O)NC(=O)[C@H](CC(C)C)NC(=O)[C@H](Cc1ccc(O)cc1)NC(=O)[C@H](CO)NC(=O)[C@H](CO)NC(=O)[C@@H](NC(=O)[C@H](CC(=O)O)NC(=O)[C@H](CO)NC(=O)[C@@H](NC(=O)[C@H](Cc1ccccc1)NC(=O)[C@@H](NC(=O)CNC(=O)[C@H](CCC(=O)O)NC(=O)[C@H](C)NC(=O)[C@@H](N)Cc1c[nH]cn1)[C@@H](C)O)[C@@H](C)O)C(C)C)C(=O)N[C@@H](C)C(=O)N[C@@H](Cc1c[nH]c2ccccc12)C(=O)N[C@@H](CC(C)C)C(=O)N[C@H](C(=O)N[C@@H](CCCCN)C(=O)NCC(=O)N[C@@H](CCCNC(=N)N)C(N)=O)C(C)C` [GLP-1] as the molecule, how does the Cmax (1 ng/kg) read?
A: 0.0314 ng/mL

Q: What about the Cmax (2 ng/kg) of the same molecule?
A: 0.0324 ng/mL

Q: And the Cmax (3 ng/kg)?
A: 0.0175 ng/mL

Q: And the Cmax (10 ng/kg)?
A: 0.0171 ng/mL

Q: What about the Cmax (50 ng/kg) of the same molecule?
A: 0.153 ng/mL

Q: What about the Cmax (0.5 mg/kg) of the same molecule?
A: 27.9 ng/mL

Q: What about the Cmax (500 μg/kg) of the same molecule?
A: 0.106 ng/mL
